Article PMC6801819, “Exogenous Iron Increases Fasciocidal Activity and Hepatocellular Toxicity of the Synthetic Endoperoxides OZ78 and MT04” (International Journal of Molecular Sciences, 2019)

How the values were obtained:
HepG2 cells [1] = assay: Cellular reactive oxygen species (DCF-DA); assay type: cell-based, human; settings: 24 h, HepG2; for cellular ROS content: drug + Fe2+; for increase of cellular ROS content, factor: drug alone (100 or 500 µM), no exogenous iron
Method: Stock solutions of the drugs tested were prepared in DMSO 100% (v/v). […] LC-MS measurements confirmed the stability of the compounds (data not shown). Treatments with AS, MT04, or OZ78 (100 or 500 µM) were performed either alone or in combination with 8% (v/v) hemin or FeCl2 solution for 24 h. The final iron concentration used was 122 µM (stock 1.5 mM) based on previous in vitro studies with F. hepatica. Dichlorodihydrofluorescein diacetate (DCF-DA) dissolved in DMSO was used to assess cellular formation of reactive oxygen species (ROS). HepG2 cells were seeded in a black-wall 96 well plate with a clear bottom as described above. Briefly, 30 min before treatment started, DCF-DA was added to the cells at a final concentration of 25 µM. DCF-DA was removed completely before the drugs were added. ROS was measured after 90 min and 24 h of drug exposure using a Tecan M200 Infinite Pro (excitation 485 nm, emission 535 nm).

HepG2 cells [2] = assay: Adenylate kinase leakage (membrane integrity test); assay type: cell-based, human; settings: 24 h, HepG2; for increase in AK release as compared to DMSO control / membrane integrity: 500 µM alone (OZ78, MT04: up to 500 µM); for release of AK, increase as compared to DMSO: combined treatment with Fe2+, concentration not given
Method: (§1) Stock solutions of the drugs tested were prepared in DMSO 100% (v/v).
(§2) In viability assays, HepG2 cells were treated with 0.1% Triton-X or 0.1% DMSO for positive or negative control, respectively.
The assay was used according to the protocol supplied by the manufacturer.

[3] = system: complex IV of the mitochondrial electron transport chain; assay: High-resolution respirometry, TMPD/ascorbate + antimycin A (complex IV); assay type: cell-based, human; settings: AS 100 µM, OZ78 500 µM, MT04 500 µM, 24 h, permeabilized HepG2
Method: (§3) After incubation with different drugs for 24 h, HepG2 cells were trypsinized and resuspended in DMEM with 10% fetal calf serum (FCS) and then centrifuged for 5 min (180× g). Cells were resuspended in MiRo5 respiration buffer (110 mM sucrose, 0.5 mM ethylene glycol-bis(β-aminoethyl ether)-N,N,N′,N′-tetraacetic acid (EGTA), 3.0 mM MgCl2, 80 mM KCl, 60 mM K-lactobionate, 10 mM KH2PO4, 20 mM taurine, 20 mM Hepes, 1.0 g/L BSA, pH 7.1). Respiration rates were measured at 37 °C using a high-resolution oxygraph (Oxygraph-2k, Oroboros Instruments, Innsbruck, Austria). Respiration rates were calculated as the time derivative of oxygen concentration measured in the closed respirometer. The amplified signal was recorded in a computer with an online display of the calibrated oxygen concentration and oxygen flux (DatLab software for data acquisition and analysis; Oroboros Instruments). The mitochondrial complex activity was assessed by a standard titration protocol: first cells were permeabilized with digitonin (10 µg/1 million cells) for 5 min. Afterward, for complex I-dependent maximal respiration stimulation, substrates added were glutamate (10 mM) and malate (5 mM), which provide nicotinamide adenine dinucleotide (NADH) to the respiratory chain (complex I activation), followed by addition of ADP (2.5 mM) (state 3, maximal respiration). After a stable signal was reached and marked, rotenone (0.5 µM) was added to inhibit complex I, and then complex II-dependent respiration was stimulated by adding succinate (10 mM), which provides flavin adenine dinucleotide (FADH) to the respiratory chain (complex II activation, state 3). Afterward, complex III was inhibited by antimycin A (2.5 µM), and complex IV-dependent respiration was measured by adding ascorbate (2 mM) and N,N,N′,N′-tetramethyl-p-phenylendiamine (TMPD, 0.5 mM). We confirmed the integrity of the outer mitochondrial membrane by showing the absence of a stimulatory effect of exogenous cytochrome c (10 µM) on respiration. Respiration was expressed as oxygen consumption per 5 × 10^5 cells.

human liver microsomes = assay: Metabolism in the presence of human liver microsomes; assay type: in vitro ADME; settings: 10 µM, 2 hours; for parent substance metabolized: functional human liver microsomes, 37 °C
Method: The metabolism of AS, MT04, and OZ78 was tested in the presence of human liver microsomes or heat-inactivated microsomes (70 °C for 20 min, referred to as control microsomes) at 37 °C. AS, MT04 or OZ78 (10 µM each) were added to 1.0 mL of reaction mixture consisting of microsomes ([…]), an NADPH regenerating system, and PBS buffer, pH 7.4. Adding the drugs started the reaction. Aliquots of 100 µL were transferred into Eppendorf tubes after 0, 15, 30, 60, 120 min. The reaction was stopped by adding 300 µL methanol. The samples were then vortexed and centrifuged at 3000 g for 30 min. Supernatants were taken for LC-MS analysis.
LC-MS/MS measurements for AS were performed as described recently. Briefly, sample measurements were done with a high-performance liquid chromatography (HPLC) system (Shimadzu, Kyoto, Japan) connected to an API 365 triple-quadrupole mass spectrometer (PE Biosystems, Foster City, CA, USA) with a turbo ion spray interface. AS was detected in positive ionization mode by selected reaction monitoring (SRM) with a transition of 267.4→163.0. For analyte separation, a reversed phase column was used (2.1 × 10 mm guard cartridge (3 μm) connected to a 2.1 × 20 mm Atlantis T3 3 μm analytical column (Waters, Milford, MA, USA)). A gradient was used (mobile phase A: 5 mM ammonium formiate plus 0.15% (v/v) formic acid in ultra-pure water, mobile phase B: 0.15% (v/v) formic acid in acetonitrile) at a flow rate of 0.3 mL/min.
The analysis of MT04 and OZ78 [42] was conducted using the same system as described for AS. A phenomenex C8 (50mm × 2.00mm, 5µm, Brechbühler AG, Schlieren, Switzerland) was used for chromatographic separation with a gradient (mobile A: 5 mM ammonium formiate in water and mobile B: acetonitrile) at a flow rate of 0.3 mL/min. MS was conducted in negative ionization mode. For OZ78 and MT04 a mass of 321.4 and 337.4, respectively, was detected.

HepG2 cells [4] = assay: Cellular ATP content (CellTiter-Glo); assay type: cell-based, human; settings: 24 h, HepG2
Method: as §1, §2
To assess cellular ATP content, HepG2 cells were seeded in white-wall 96-well plates with a clear bottom (Nunc). One day after seeding, cells were treated with the respective drugs. […] Luminescence was measured using Tecan M200 Infinite Pro.

[5] = system: complex II of the mitochondrial electron transport chain; assay: High-resolution respirometry, succinate + rotenone (complex II); assay type: cell-based, human; settings: AS 100 µM, OZ78 500 µM, MT04 500 µM, 24 h, permeabilized HepG2, vs control
Method: as §3

F. hepatica = settings: rats infected with F. hepatica, single oral dose AS 200 mg/kg, OZ78 100 mg/kg, MT04 50 mg/kg; cited from earlier work

| Compound | cellular ROS content (HepG2 cells [1]) | increase of cellular ROS content, factor (HepG2 cells [1]) | membrane leakage (AK release) as compared to DMSO control (HepG2 cells [2]; 100 µM + Fe2+) [%] | increase in AK release as compared to DMSO control (HepG2 cells [2]; 100 µM alone) [%] | increase in AK release as compared to DMSO control / membrane integrity (HepG2 cells [2]) | decrease of maximal ADP-stimulated respiration rate, TMPD/ascorbate + antimycin A (complex IV) [3] | parent substance metabolized (human liver microsomes) | degradation of parent substance (human liver microsomes; heat-inactivated microsomes) | decrease in cellular ATP content as compared to DMSO (HepG2 cells [4]; 100 µM + Fe2+ (iron)) | decrease in cellular ATP content as compared to DMSO (HepG2 cells [4]; 100 µM + hemin) [%] | decrease in cellular ATP content as compared to DMSO (HepG2 cells [4]; 100 µM alone) | decrease in cellular ATP content as compared to DMSO (HepG2 cells [4]; 500 µM + Fe2+ (iron)) | decrease in cellular ATP content as compared to DMSO (HepG2 cells [4]; 500 µM + hemin) | decrease in cellular ATP content as compared to DMSO (HepG2 cells [4]; 500 µM alone) | inhibition of mitochondrial respiration, succinate + rotenone (complex II) [5] | killing of juvenile and adult liver flukes in vivo (F. hepatica) | release of AK, increase as compared to DMSO (HepG2 cells [2]) |
| --- | --- | --- | --- | --- | --- | --- | --- | --- | --- | --- | --- | --- | --- | --- | --- | --- | --- |
| C[C@H]1[C@H](OC(=O)CCC(=O)O)O[C@@H]2O[C@@]3(C)CC[C@H]4[C@H](C)CC[C@@H]1[C@@]24OO3 [AS, artesunate, reference compound] | increased the cellular ROS content | 5 | 320 | 190 | 270% | 47% | 94% | no degradation was detected | 93% | 95 | 55% | complete depletion in cellular ATP | complete depletion in cellular ATP | complete depletion in cellular ATP | 83% | efficiently killed juvenile and adult liver flukes | – |
| O=C(O)C[C@H]1CC[C@]2(CC1)OOC1(O2)C2CC3CC(C2)CC1C3 (stereo partly shown) [OZ78] | increased the cellular ROS content | 5 | – | – | did not impair membrane integrity | only numerically, but without reaching statistical significance | did not show a decrease | – | not toxic | 12 | not toxic | not enhanced by the addition of iron or hemin | not enhanced by the addition of iron or hemin | 14% | only numerically, but without reaching statistical significance | efficiently killed juvenile and adult liver flukes | did not |
| O=C(O)CC1CCC2(CC1)OOC1(OO2)C2CC3CC(C2)CC1C3 (stereo not shown) [MT04] | not | – | – | – | did not impair membrane integrity | 22% | did not show a decrease | – | 20% | 40 | not toxic | 65% | 65% | 20% | 61% | efficiently killed juvenile and adult liver flukes | 200% |
